Assay results: patent US9132130B2, “Purine derivative and antitumor agent using same” (ZENYAKU KOGYO KABUSHIKI KAISHA, priority 2009, dated 2015)

How the values were obtained:
Assay type in all cases: cell-based
[1] = tested on: P388 cells (mouse leukemia cells); test: in vitro antitumor activity test, P388 cells, XTT colorimetry; conditions: cultured 72 hours
Description: P388 cells (mouse leukemia cells) passaged in the abdominal cavity of DBA/2 mice were extracted with ascitic fluid, and cultured in a RPMI 1640 medium (added with 10% fetal bovine serum, 25 mM HEPES, 0.1 mg/ml kanamycin and 5 μM 2-hydroxyethyldisulfide) at 37° C. in 5% carbon dioxide gas. After culturing for 16 hours, floating P388 cells were made into a single cell suspension of 4×10^4 cells per 1 ml using the same RPMI 1640 medium as given above. The test substances were dissolved in DMSO, then diluted in a RPMI 1640 medium (added with 10% fetal bovine serum, 25 mM HEPES and 0.1 mg/ml kanamycin) and prepared so that the concentrations were 2.0×10^−9 to 2.0×10^−4 M.
0.1 ml of the cell suspension was placed into each well of 96-well microplates, then 0.1 ml of the sample solutions were added, and cultured for 72 hours at 37° C. in 5% carbon dioxide gas.
(§1) Afterwards, the level of growth inhibition at various sample concentrations was obtained using XTT colorimetry, and concentrations at which growth was inhibited by 50% (GI50 values [μM]) were calculated.

[2] = tested on: PC-3 cells (human prostate cancer cells); test: in vitro antitumor activity test, PC-3 cells, XTT colorimetry; conditions: PC-3 human prostate cancer cells, cultured 72 hours
Description: (§2) WiDr cells (human colon cancer cells) subcultured in a culture medium composed of a MEM medium added with 10% fetal bovine serum, 25 mM HEPES and 0.1 mg/ml kanamycin under the conditions of 37° C. and 5% carbon dioxide gas were made into single floating cells by treating with trypsin/EDTA, and a single cell suspension of 3×10^4 cells per 1 ml was prepared using the MEM medium (added with 10% fetal bovine serum, 25 mM HEPES and 0.1 mg/ml kanamycin). After dissolving the test compounds in DMSO, they were diluted in a RPMI 1640 medium (added with 10% fetal bovine serum, 25 mM HEPES and 0.1 mg/ml kanamycin) and prepared so that the concentrations were 2.0×10^−9 to 2.0×10^−4 M.
(§3) 0.1 ml of the cell suspension was placed into each well of 96-well microplates, cultured for 24 hours to allow the cells to adhere to the microplates, then 0.1 ml of the sample solutions were added, and cultured for 72 hours at 37° C. in 5% carbon dioxide gas.
as §1
(§4) In addition, cells other than WiDr cells that were used, and the condition for preparing each single cell suspension were as follows.
PC-3 cells (human prostate cancer cells): 2×10^4 cells/ml

[3] = tested on: B16F10 cells (mouse melanoma [malignant melanoma] cells); test: in vitro antitumor activity test, B16F10 cells, XTT colorimetry; conditions: B16-F10, cultured 72 hours
Description: as §2, §3, §1, §4
B16F10 cells (mouse melanoma [malignant melanoma] cells): 1×10^4 cells/ml

[4] = tested on: WiDr cells (human colon cancer cells); test: in vitro antitumor activity test, WiDr cells, XTT colorimetry; conditions: cultured 72 hours
Description: as §2, §3, §1

[5] = tested on: A549 cells (human lung cancer cells); test: in vitro antitumor activity test, A549 cells, XTT colorimetry; conditions: cultured 72 hours
Description: as §2, §3, §1, §4
A549 cells (human lung cancer cells): 2×10^4 cells/ml

Row | Compound | GI50 [1] | GI50 [2] | GI50 [3] | GI50 [4] | GI50 [5]
1 | CCc1nc2c(N3CCN(N=O)C(C)C3)nc(SCc3ccc(OC)cc3)nc2n1C (stereo in doubt) [Compound 22, 8-ethyl-2-(4-methoxybenzylsulfanyl)-9-methyl-6-[(3S)-3-methyl-4-nitrosopiperazin-1-yl]-9H-purine] | 950 nM | 640 nM | 1610 nM | 1190 nM | 1250 nM
2 | COc1ccc(CSc2nc(N(C)C)c3ncn(C)c3n2)cc1C#N [Compound 87, 2-(3-cyano-4-methoxybenzylsulfanyl)-6-dimethylamino-9-methyl-9H-purine] | 20 nM | 40 nM | 80 nM | 40 nM | 50 nM
3 | CCn1c(C)nc2c(N3CCOCC3)nc(SCc3ccc(OC)cc3)nc21 [Compound 102, 9-ethyl-2-(4-methoxybenzylsulfanyl)-8-methyl-6-morpholino-9H-purine] | 720 nM | 830 nM | 1420 nM | 920 nM | 830 nM
4 | CCc1ccc(CSc2nc(N3CCOCC3)c3nc(CC)n(C)c3n2)cc1N [Compound 90, 2-(3-amino-4-ethylbenzylsulfanyl)-8-ethyl-9-methyl-6-morpholino-9H-purine] | 520 nM | 1730 nM | 1100 nM | 1370 nM | 720 nM
5 | CCc1nc2c(N3CCOCC3)nc(SCc3ccc(C)c(F)c3)nc2n1C [Compound 11, 8-ethyl-2-(3-fluoro-4-methylbenzylsulfanyl)-9-methyl-6-morpholino-9H-purine] | 670 nM | 400 nM | 1490 nM | 1040 nM | 1160 nM
6 | COc1ccc(CSc2nc(N(C)C(C)=O)c3ncn(C)c3n2)cc1 [Compound 61, 6-(N-acetyl-N-methylamino)-2-(4-methoxybenzylsulfanyl)-9-methyl-9H-purine] | 330 nM | 890 nM | 840 nM | 460 nM | 520 nM
7 | COc1ccc(CSc2nc(N3C=COCC3)c3ncn(C)c3n2)cc1[N+](=O)[O-] [Compound 149, 6-(2,3-dihydro-[1,4]oxadin-4-yl)-2-(4-methoxy-3-nitrobenzylsulfanyl)-9-methyl-9H-purine] | 490 nM | 530 nM | 1380 nM | 350 nM | 470 nM
8 | COc1ccc(CSc2nc(N3CCOCC3)c3ncn(C)c3n2)cc1F [Compound 83, 2-(3-fluoro-4-methoxybenzylsulfanyl)-9-methyl-6-morpholino-9H-purine] | 90 nM | 180 nM | 180 nM | 140 nM | 150 nM
9 | C/C=C/c1nc(SCc2ccc(OC)cc2)nc2c1ncn2C [Compound 163, 2-(4-methoxybenzylsulfanyl)-9-methyl-6-(1-trans-propenyl)-9H-purine] | 280 nM | 870 nM | 540 nM | 510 nM | 670 nM
10 | CCc1nc2c(N3CCOCC3)nc(SCc3ccc(I)cc3)nc2n1C [Compound 49, 8-ethyl-2-(4-iodobenzylsulfanyl)-9-methyl-6-morpholino-9H-purine] | 290 nM | 460 nM | 1340 nM | 390 nM | 320 nM
11 | CCc1nc2c(N3CCOCC3)nc(SCc3ccc(OC)c(NC(C)=O)c3)nc2n1C [Compound 27, 2-(3-acetylamino-4-methoxybenzylsulfanyl)-8-ethyl-9-methyl-6-morpholino-9H-purine] | 670 nM | 650 nM | 1340 nM | 920 nM | 580 nM
12 | CCOc1ccc(CSc2nc(NC)c3ncn(C)c3n2)cc1N [Compound 107, 2-(3-amino-4-ethoxybenzylsulfanyl)-9-methyl-6-methylamino-9H-purine] | 30 nM | 50 nM | 100 nM | 310 nM | 70 nM
13 | COc1ccc(CNc2nc(N3CCOCC3)c3ncn(C)c3n2)cc1 [Compound B, reference compound] | > 10000 nM | > 10000 nM | > 10000 nM | > 10000 nM | > 10000 nM
14 | CCc1nc2c(N3CCOCC3)nc(SCc3ccc(OC)cc3)nc2n1C [Compound 1, 8-ethyl-2-(4-methoxybenzylsulfanyl)-9-methyl-6-morpholino-9H-purine] | 290 nM | 280 nM | 410 nM | 350 nM | 560 nM
15 | CCN(C)c1nc(SCc2ccc(OC)c(N)c2)nc2c1ncn2C [Compound 84, 2-(3-amino-4-methoxybenzylsulfanyl)-6-(N-ethyl-N-methylamino)-9-methyl-9H-purine] | 260 nM | 980 nM | 510 nM | 1900 nM | 550 nM
16 | CCOc1ccc(CSc2nc(N3CCOCC3)c3nc(CC)n(C)c3n2)cc1N [Compound 103, 2-(3-amino-4-ethoxybenzylsulfanyl)-8-ethyl-9-methyl-6-morpholino-9H-purine] | 170 nM | 130 nM | 320 nM | 280 nM | 230 nM
17 | COc1ccc(CSc2nc(N(C)OC)c3ncn(C)c3n2)cc1F [Compound 137, 2-(3-fluoro-4-methoxybenzylsulfanyl)-6-(N-methoxy-N-methylamino)-9-methyl-9H-purine] | 60 nM | 60 nM | 100 nM | 70 nM | 50 nM
18 | CCc1nc2c(N3CCOCC3)nc(SCc3ccc(OC)c(N)c3)nc2n1CC [Compound 97, 2-(3-amino-4-methoxybenzylsulfanyl)-8,9-diethyl-6-morpholino-9H-purine] | 90 nM | 120 nM | 290 nM | 300 nM | 140 nM
19 | CCc1nc2c(N3CCOCC3)nc(SCc3ccc(OC)c(C#N)c3)nc2n1C [Compound 51, 2-(3-cyano-4-methoxybenzylsulfanyl)-8-ethyl-9-methyl-6-morpholino-9H-purine] | 70 nM | 100 nM | 380 nM | 140 nM | 100 nM
20 | CCCn1c(CC)nc2c(N3CCOCC3)nc(SCc3ccc(OC)cc3)nc21 [Compound 6, 8-ethyl-2-(4-methoxybenzylsulfanyl)-6-morpholino-9-propyl-9H-purine] | 720 nM | 600 nM | 1160 nM | 940 nM | 870 nM
21 | CCOc1ccc(CSc2nc(N3CCOCC3)c3nc(CC)n(CC)c3n2)cc1F [Compound 117, 8,9-diethyl-2-(4-ethoxy-3-fluorobenzylsulfanyl)-6-morpholino-9H-purine] | 300 nM | 310 nM | 370 nM | 290 nM | 430 nM
22 | CCc1nc2c(N3CCOCC3)nc(SCc3ccc(OC)c(C#N)c3)nc2n1CC [Compound 94, 2-(3-cyano-4-methoxybenzylsulfanyl)-8,9-diethyl-6-morpholino-9H-purine] | 80 nM | 110 nM | 140 nM | 80 nM | 100 nM
23 | CCn1cnc2c(N3C=COCC3)nc(SCc3ccc(OC)c(F)c3)nc21 [Compound 154, 6-(2,3-dihydro-[1,4]oxadin-4-yl)-9-ethyl-2-(3-fluoro-4-methoxybenzylsulfanyl)-9H-purine] | 90 nM | 220 nM | 370 nM | 170 nM | 100 nM
24 | CCc1nc2c(N(C)C)nc(SCc3ccc(OC)c(F)c3)nc2n1C [Compound 71, 6-dimethylamino-8-ethyl-2-(3-fluoro-4-methoxybenzylsulfanyl)-9-methyl-9H-purine] | 80 nM | 50 nM | 110 nM | 80 nM | 100 nM
25 | COc1ccc(CSc2nc(N(C)OC)c3ncn(C)c3n2)cc1 [Compound 105, 6-(N-methoxy-N-methylamino)-2-(4-methoxybenzylsulfanyl)-9-methyl-9H-purine] | 240 nM | 560 nM | 410 nM | 260 nM | 240 nM
